Measured values taken from patent publication US5567684A, “Synthetic ganglioside derivatives” (The Regents of The University of California, priority 1994, dated 1996).
pIC50: −log10 of the molar value. “Also recorded” adds a separate entry of the source. Like-named read-outs stand apart in the source and are kept apart here.

Experiments:
[1] = system: normal human peripheral blood mononuclear leukocytes; experiment: cells; type: cell-based
[2] = system: allogeneic immune response in popliteal lymph node; experiment: In vivo assay of immunosuppressive activity: allogeneic immune response in draining popliteal lymph node after footpad injection; parameters: species or system C3H mice; conditions: for lymph node mass, stimulated / lymph node mass, net increase / lymph node mass, unstimulated: day 4; for lymph node mass, stimulated: left footpad; for lymph node mass, unstimulated: right footpad
Description: In vivo Assay of Immunosuppressive Activity: Footpad injection of the synthetic ganglioside derivatives being studied and of the stimulant of the cellular immune response (allogeneic cells), is subsequently followed by harvest of the popliteal node and assessment of the node size, cell number, specific proliferation response and generation of specific cytotoxicity.
Mice: C3H (H-2^K) and BALB/c (H-2^d) mice are obtained at 6 weeks of age and used in these experiments at 7-12 weeks of age. The animals are murine virus free strains purchased from Charles River, Wilmington, Mass.
Preparation of stimulator cells: Spleens are removed aseptically and immediately placed in murine complete media [RPMI 1640 w/o L-glutamine (Whittaker Bioproducts, Walkersville, Md.) supplemented with 10% FCS; 1% of MEM non-essential amino acids (Cellgro), sodium pyruvate, L-glutamine, Penicillin 50 U/ml/Streptomycin 50 μg/ml and 10 mM Hepes Buffer (Whittaker Bioproducts)] then transferred to a 60×10 mm petri dish. A sterile single cell suspension is prepared by gently pressing the spleen onto a cell dissociation sieve (Sigma). Mononuclear cells are isolated by Ficoll-Hypaque density gradient separation, followed by lysis of erythrocytes (ACK lysing buffer pH 7.4). The cells are washed and their viability determined by trypan blue exclusion. Allogeneic (BALB/c) splenocytes are diluted to the appropriate concentration in saline and are injected into the footpad of C3H mice together with the synthetic ganglioside derivatives to be tested.
Preparation of synthetic ganglioside derivatives: Synthetic ganglioside derivatives are aliquoted in HPLC-grade chloroform:methanol (1:1), and dried in glass microvials. The synthetic ganglioside derivatives are then resuspended for injection in 0.9% NaCl, sonicated for 2 min in a Branson water bath sonicator.
Injections: Spleen cells or tumor cells and the synthetic ganglioside derivatives being studied are injected into the left hind footpad in a total volume of 30 μl.
Isolation of popliteal lymph nodes: Primed animals are killed by cervical dislocation on day 4, the popliteal lymph node draining the left and right footpads are removed aseptically, trimmed free of excess fat, weighted and placed on ice in tubes containing tissue culture medium. The nodes are then teased with a flat end of a 3 ml syringe to obtain a single cell suspension, which is washed in complete murine media containing 0.1% 2mercaptoethanol (Gibco, New York). The cells are then quantified and their viability determined by trypan blue exclusion. The cell concentration is adjusted to 2×10^6 cells/ml.
Cell cultures: 2×10^5 lymph node cells in 100 μl are cultured for 18 hours in complete medium with 0.5 μC ^3 H-thymidine incorporation quantified by β-scintillation counting as a measure of in vivo lymphocyte activation (50).
In this model, the immune response in a local microenvironment directed against allogeneic cells is assessed. Allogeneic (C3H mice) spleen cells were injected into the footpad of BALB/c mice and the draining popliteal lymph nodes were removed from the sacrificed mice four days later.

[3] = Homo sapiens, Leukocyte, 2.5 μM, read-out: Inhibition
[4] = Homo sapiens, Leukocyte, 5.0 μM, read-out: Inhibition
[5] = Table 1, mean ± SD of five mice, GM3 n=1 10 nmol coinjected, cyclosporin A 24 mg/kg/dose i.p. × 4 doses
[6] = Table 2, mean ± SD of five mice, dialkyl GM3 11 μg coinjected, CSA 24 mg/kg/day i.p. × 4 days
[7] = Homo sapiens, Leukocyte, read-out: inhibition of human lymphoproliferation
[8] = Table 4, mean ± SD of five mice, ganglioside 10 nmol coinjected, CSA 24 mg/kg/dose i.p. × 4 doses

Structure (SMILES): CCCCCCCCCCCCCC=CC(O)C(COC1OC(CO)C(OC2OC(CO)C(O)C(OC3(C(=O)O)CC(O)C(NC(C)=O)C(C(O)C(O)CO)O3)C2O)C(O)C1O)NC(=O)CCCCCCCCCCCCC (stereo not drawn) [GM3 d18:1-C14:0]
- [^3 H] Thymidine Uptake ([1]; 2.5 μM): 4.6 CPM × 10^-3
- [^3 H] Thymidine Uptake ([1]; 5.0 μM): 0.8 CPM × 10^-3
- inhibition at 2.5 µM [1, 3]: 53%
- inhibition at 5 µM [1, 4]: 92%

Structure (SMILES): CCCCCCCCCCCCCC=CC(O)C(COC1OC(CO)C(OC2OC(CO)C(O)C(OC3(C(=O)O)CC(O)C(NC(C)=O)C(C(O)C(O)CO)O3)C2O)C(O)C1O)NC(C)=O (stereo not drawn) [GM3 n=1]
- immunosuppressive activity compared with lyso GM3 (n=-1) [1]: higher degree of immunosuppressive activity
- immunosuppressive activity compared with n = 17 or 23 [1]: greater immunosuppressive activity than glycosphingolipids wherein n is 17 or 23
- relative immunosuppressive activity (inhibition of human lymphoproliferative response) ([1]; 5 μM): highest immunosuppressive activity
- pIC50 ([1]; Homo sapiens, Leukocyte, read-out: ID50, inhibition of the human lymphoproliferative response): 9.70
- [^3 H]thymidine uptake (spontaneous lymphoproliferation) ([2]; Table 1, 2 × 10^5 cells/well, mean ± SD of three cultures): 329 ± 18 cpm
- lymphocytes (total mononuclear leukocytes recovered from five stimulated popliteal lymph nodes) ([2]; Table 1, GM3 n=1 10 nmol, cyclosporin A 24 mg/kg/dose i.p. × 4 doses): 1.03 × 10^7
- lymph node mass, stimulated [2, 5]: 1.84 ± 0.30 mg
- lymph node mass, net increase [2, 5]: 0.56 ± 0.36 mg
- lymph node mass, unstimulated [2, 5]: 1.29 ± 0.24 mg
- P, difference in net increase of popliteal nodes between control and GM3 n = 1 treated groups ([2]; Table 1 footnote): < 0.01
- in vivo immunosuppressive activity compared with mixed human brain gangliosides ([2]; mouse, in vivo): much more active than the mixed brain gangliosides
- in vivo immunosuppressive activity compared with cyclosporin A ([2]; single dose of GM3 n=1, Table 1): almost as immunosuppressive as systemically administered cyclosporin A

Structure (SMILES): CCCCCCCCCCCCCCC(CCCCCCCCCCCCCC)COC1OC(CO)C(OC2OC(CO)C(O)C(OC3(C(=O)O)CC(O)C(NC(C)=O)C(C(O)C(O)CO)O3)C2O)C(O)C1O [dialkyl GM3, 2-(Tetradecylhexadecyl) O-(5-acetamido-3,5-dideoxy-D-glycero-D-galacto-2-nonulopyranosylonic acid)-(2→3)-O-β-D-galactopyranosyl-(1→4)-β-D-glucopyranoside]
- immunosuppressive activity in vitro, in words [1]: marked immunosuppressive activity; also recorded: higher degree of inhibition of dialkyl GM3 than that of GM3 is readily observed
- potency relative to GM3 d18:1-C18:0 [1]: four-fold
- [^3 H] Thymidine Uptake ([1]; 2.5 μM): 0.7 CPM × 10^-3
- [^3 H] Thymidine Uptake ([1]; 5.0 μM): 0.3 CPM × 10^-3
- pIC50 ([1]; Homo sapiens, Leukocyte, 0-10 μM, read-out: ID50, inhibition of human lymphoproliferation): 6.70
- inhibition at 2.5 µM [1, 3]: 93%
- inhibition at 5 µM [1, 4]: 97%
- IC90 ([1]; Homo sapiens, Leukocyte, read-out: concentration at which 90% inhibition was observed, 0-20 μM): < 7000 nM
- [^3 H]thymidine uptake (spontaneous lymphoproliferation) [2]: 317 ± 45 cpm
- [^3 H]thymidine uptake relative to control group ([2]; 2×10^5 cells): 20%
- [^3 H]thymidine uptake (spontaneous lymphoproliferation) ([2]; Table 2, 0.5 × 10^5 cells, mean ± SEM of three cultures): 107 ± 29 cpm
- [^3 H]thymidine uptake (spontaneous lymphoproliferation) ([2]; Table 2, 1 × 10^5 cells, mean ± SEM of three cultures): 152 ± 15 cpm
- lymph node mass, net increase ([2]; Table 2, dialkyl GM3 11 μg coinjected, CSA 24 mg/kg/day i.p. × 4 days): 0.45 mg
- lymph node mass, stimulated [2, 6]: 1.86 ± 0.25 mg
- lymph node mass, unstimulated [2, 6]: 1.41 ± 0.17 mg
- lymphocytes (total mononuclear leukocytes recovered from five stimulated popliteal lymph nodes) ([2]; Table 2, dialkyl GM3 11 μg, CSA 24 mg/kg/day i.p. × 4 days): 0.83 ×10^7
- suppression of the immune response / proliferation, in words ([2]; Table 2, three cell densities for proliferation): marked suppression of the immune response; also recorded: markedly suppresses the proliferation
- lymphocyte number as fraction of control group ([2]; control group 2.3×10^7 cells): ≤ 1/3
- net increase of lymph node mass ([2]; dialkyl GM3 10 nmol or 11 μg/mouse coinjected, cyclosporin A systemic): 0.45 mg
- lymphocyte (mononuclear-leukocyte) number ([2]; five nodes from five mice): 0.8 ×10^7

Structure (SMILES): CCCCCCCCCCCCCC=CC(O)C(COC1(C(=O)O)CC(O)C(NC(C)=O)C(C(O)C(O)CO)O1)NC(=O)CCCCCCCCCCCCCCCCC [αGM5, (2S,3R,4E)-1-O-(5-acetamido-3,5-dideoxy-D-glycero-α- and β-D-galacto-f2-nonulopyranosylonicacid)-2-octadecanamido-4-octadecene-1,3-diol]
- immunosuppressive activity in vitro, in words [1]: potent immunosuppressive agents
- [^3 H] Thymidine Uptake ([1]; 2.5 μM): 0.1 CPM × 10^-3
- [^3 H] Thymidine Uptake ([1]; 5.0 μM): 0.1 CPM × 10^-3
- inhibition at 2.5 µM [1, 3]: 99%
- inhibition at 5 µM [1, 4]: 99%
- IC90 ([1]; Homo sapiens, Leukocyte, read-out: ID90): ~2500 nM
- inhibition at 0.0025 µM [1, 7]: 99%
- inhibition at 0.005 µM [1, 7]: 99%
- lymph node mass, net increase ([2]; Table 4, ganglioside 10 nmol coinjected, CSA 24 mg/kg/dose i.p. × 4 doses): 0.58 mg
- lymph node mass, stimulated [2, 8]: 1.40 ± 0.22 mg
- lymph node mass, unstimulated [2, 8]: 0.82 ± 0.26 mg
- in vivo immunosuppression, in words ([2]; αGM5, compared to systemically administered cyclosporin A, Table 4): highly immunosuppressive in vivo
- reduction in cellular immune response (increase in lymph mass caused by in vivo allostimulation) ([2]; αGM5, Table 4): 2/3

Structure (SMILES): CCCCCCCCCCCCCC=CC(O)C(COC1(C(=O)O)CC(O)C(NC(C)=O)C(C(O)C(O)CO)O1)NC(=O)CCCCCCCCCCCCCCCCC [βGM5, (2S,3R,4E)-1-O-(5-acetamido-3,5-dideoxy-D-glycero-α- and β-D-galacto-f2-nonulopyranosylonicacid)-2-octadecanamido-4-octadecene-1,3-diol]
- immunosuppressive activity in vitro, in words [1]: potent immunosuppressive agents
- [^3 H] Thymidine Uptake ([1]; 2.5 μM): 1.4 CPM × 10^-3
- [^3 H] Thymidine Uptake ([1]; 5.0 μM): 0.3 CPM × 10^-3
- inhibition at 2.5 µM [1, 7]: 86%
- inhibition at 5 µM [1, 7]: 97%
